{"source": "patent US9751889B2", "about": "(CRYSTAL PHARMATECH INC., priority 2013, dated 2017)", "key": {"[1]": {"conditions": "cited from earlier work"}, "[2]": {"test": "physchem", "conditions": "for Solubility / solubility at 1 h / solubility at 4 h / solubility at 24 h: RT; for Solubility: listed as WO2013184572A1 Form A; for solubility at 1 h / solubility at 4 h / solubility at 24 h: thermodynamic from solid", "procedure": "2. Add 3 mL of bio-relevant medium into each vial.\n3. Cap the vials and keep all the suspension samples stirring at RT (room temperature) using a rolling incubator at a rate of 25 r/min.\n4. Sample at 1 h, 4 h and 24 h respectively. About 0.6 mL aliquot of the suspension is transferred per time from solubility vial into a centrifuge filtration tube (pore size of 0.45 μm).\n5. Centrifuge filtration tubes at a rate of 8500 rpm for 3 minutes at RT, collect 0.2 mL of supernatant for HPLC quantification determination and collect the rest of solution for pH measurement, and separate the solid for XRPD characterization."}, "[3]": {"conditions": "dish open, 180 days; for Chemical purity: HPLC; for Final form: XRPD", "procedure": "The chemical and physical stabilities of the samples were evaluated by high performance liquid chromatography (HPLC) and XRPD."}, "[4]": {"conditions": "DVS, 25° C.", "procedure": "Dynamic Vapor Sorption (DVS)\nDynamic Vapor Sorption (DVS) was measured via a SMS (Surface Measurement Systems) DVS Intrinsic. The relative humidity at 25° C. were calibrated against deliquescence point of LiCl, Mg(NO3)2 and KCl. Typical Parameters for DVS test are listed below."}}, "note": "Where two headings read alike, the source gives them in different places."}
{"compound": "C=CC(=O)N1CCC[C@@H](n2nc(-c3ccc(Oc4ccccc4)cc3)c3c(N)ncnc32)C1", "note": "[Form A, 1-[(3R)-3-[4-amino-3-(4-phenoxyphenyl)-1H-pyrazolo [3,4-d]pyrimidin-1-yl]piperidin-1-yl]prop-2-en-1-one, reference compound]", "values": [{"measurement": "Solubility", "setting": "[1]; pH=8", "result": 13, "unit": "µg/mL"}, {"measurement": "Solubility", "setting": "[2]; FeSSIF, time point 1 h", "result": 100, "unit": "µg/mL"}, {"measurement": "Solubility", "setting": "[2]; FeSSIF, time point 4 h", "result": 110, "unit": "µg/mL"}, {"measurement": "Solubility", "setting": "[2]; FeSSIF, time point 24 h", "result": 130, "unit": "µg/mL"}, {"measurement": "Solubility", "setting": "[2]; SGF, time point 1 h", "result": 360, "unit": "µg/mL"}, {"measurement": "Solubility", "setting": "[2]; SGF, time point 4 h", "result": 390, "unit": "µg/mL"}, {"measurement": "Solubility", "setting": "[2]; SGF, time point 24 h", "result": 380, "unit": "µg/mL"}]}
{"compound": "C=CC(=O)N1CCC[C@@H](n2nc(-c3ccc(Oc4ccccc4)cc3)c3c(N)ncnc32)C1", "note": "[Form B, 1-[(3R)-3-[4-amino-3-(4-phenoxyphenyl)-1H-pyrazolo [3,4-d]pyrimidin-1-yl]piperidin-1-yl]prop-2-en-1-one]", "values": [{"measurement": "Solubility", "setting": "[1]; pH=7.42", "result": 9.6, "unit": "µg/mL"}]}
{"compound": "C=CC(=O)N1CCC[C@@H](n2nc(-c3ccc(Oc4ccccc4)cc3)c3c(N)ncnc32)C1", "note": "[Form I, 1-[(3R)-3-[4-amino-3-(4-phenoxyphenyl)-1H-pyrazolo [3,4-d]pyrimidin-1-yl]piperidin-1-yl]prop-2-en-1-one]", "values": [{"measurement": "Chemical purity", "setting": "[3]; 25° C./60% RH", "result": 98.98, "unit": "%"}, {"measurement": "Final form", "setting": "[3]; 25° C./60% RH", "result": "Form I"}, {"measurement": "Chemical purity", "setting": "[3]; 40° C./75% RH", "result": 98.98, "unit": "%"}, {"measurement": "Final form", "setting": "[3]; 40° C./75% RH", "result": "Form I"}, {"measurement": "Solubility in comparison to crystalline Form A (WO2013184572A1)", "setting": "[2]; FeSSIF and SGF", "result": "higher solubility"}, {"measurement": "solubility at 1 h", "setting": "[2]; fed state simulated intestinal fluid (FeSSIF), fessif, time point 1 h", "result": 150, "unit": "µg/mL"}, {"measurement": "solubility at 4 h", "setting": "[2]; fed state simulated intestinal fluid (FeSSIF), fessif, time point 4 h", "result": 160, "unit": "µg/mL"}, {"measurement": "solubility at 24 h", "setting": "[2]; fed state simulated intestinal fluid (FeSSIF), fessif, time point 24 h", "result": 160, "unit": "µg/mL"}, {"measurement": "solubility at 1 h", "setting": "[2]; simulated gastric fluid (SGF), simulated gastric fluid, SGF, time point 1 h", "result": 500, "unit": "µg/mL"}, {"measurement": "solubility at 4 h", "setting": "[2]; simulated gastric fluid (SGF), simulated gastric fluid, SGF, time point 4 h", "result": 500, "unit": "µg/mL"}, {"measurement": "solubility at 24 h", "setting": "[2]; simulated gastric fluid (SGF), simulated gastric fluid, SGF, time point 24 h", "result": 480, "unit": "µg/mL"}, {"measurement": "Water uptake under 80% RH", "setting": "[4]; 80% RH", "result": 0.19, "unit": "%"}, {"measurement": "Water uptake under 80% RH", "setting": "[4]; 80% RH, listed as Ibrutinib Form I", "result": 0.19, "unit": "%"}, {"measurement": "Water uptake under 95% RH", "setting": "[4]; 95% RH", "result": 0.48, "unit": "%"}, {"measurement": "Hygroscopicity (European pharmacopoeia criteria)", "setting": "[4]; 80% RH", "result": "non-hygroscopic"}]}
